Assay results published in PubChem BioAssay AID248 (DTP/NCI, 2004).
Values joined by “and” are separate entries in the source; they are usually repeats but may differ in a detail not shown here. Identical values can stand only once. Toxic doses and inconclusive results are not listed. Cut-off read from the data, not from the text of the source: active = T/C of 150% or more; inactive = T/C below 125%.

Test system: L1210 leukemia ip in BDF1 mice, survival T/C
Assay: NCI In Vivo Anticancer Drug Screen. Data for tumor model L1210 Leukemia (intraperitoneal) in B6D2F1 (BDF1) mice
Details: endpoint: mean survival time, higher = longer survival
Procedure, shortened: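 Value reflects the ratio of survival in compound-treated mice to survival in vehicle-treated controls, with both groups carrying the same transplanted tumor.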

[1] = dose: 100.0 mg/kg/injection, schedule: Q01DX001 (ip), vehicle: saline
[2] = dose: 200.0 mg/kg/injection, schedule: Q01DX001 (ip), vehicle: saline
[3] = dose: 400.0 mg/kg/injection, schedule: Q01DX001 (ip), vehicle: saline
[4] = dose: 100.0 mg/kg/injection, schedule: Q01DX009 (ip), vehicle: saline with Tween-80
[5] = dose: 200.0 mg/kg/injection, schedule: Q01DX009 (ip), vehicle: saline with Tween-80
[6] = dose: 100.0 mg/kg/injection, schedule: Q04DX002 (ip), vehicle: Klucel (hydroxypropylcellulose) (HPC)
[7] = dose: 200.0 mg/kg/injection, schedule: Q04DX002 (ip), vehicle: Klucel (hydroxypropylcellulose) (HPC)
[8] = dose: 200.0 mg/kg/injection, schedule: Q01DX009 (ip), vehicle: Klucel (hydroxypropylcellulose) (HPC)
[9] = dose: 25.0 mg/kg/injection, schedule: Q01DX009 (ip), vehicle: saline with Tween-80
[10] = dose: 50.0 mg/kg/injection, schedule: Q01DX009 (ip), vehicle: saline with Tween-80
[11] = dose: 100.0 mg/kg/injection, schedule: Q01DX009 (ip), vehicle: Klucel (hydroxypropylcellulose) (HPC)
[12] = dose: 400.0 mg/kg/injection, schedule: Q01DX009 (ip), vehicle: Klucel (hydroxypropylcellulose) (HPC)
[13] = dose: 100.0 mg/kg/injection, schedule: Q04DX003 (ip), vehicle: saline
[14] = dose: 200.0 mg/kg/injection, schedule: Q04DX003 (ip), vehicle: saline
[15] = dose: 6.25 mg/kg/injection, schedule: Q01DX009 (ip), vehicle: saline
[16] = dose: 100.0 mg/kg/injection, schedule: Q01DX001 (ip), vehicle: other
[17] = dose: 200.0 mg/kg/injection, schedule: Q01DX001 (ip), vehicle: other
[18] = dose: 400.0 mg/kg/injection, schedule: Q01DX001 (ip), vehicle: other
[19] = dose: 100.0 mg/kg/injection, schedule: Q01DX001 (ip), vehicle: Klucel (hydroxypropylcellulose) (HPC)
[20] = dose: 200.0 mg/kg/injection, schedule: Q01DX001 (ip), vehicle: Klucel (hydroxypropylcellulose) (HPC)
[21] = dose: 400.0 mg/kg/injection, schedule: Q01DX001 (ip), vehicle: Klucel (hydroxypropylcellulose) (HPC)
[22] = dose: 100.0 mg/kg/injection, schedule: Q04DX003 (ip), vehicle: Klucel (hydroxypropylcellulose) (HPC)
[23] = dose: 200.0 mg/kg/injection, schedule: Q04DX003 (ip), vehicle: Klucel (hydroxypropylcellulose) (HPC)
[24] = dose: 400.0 mg/kg/injection, schedule: Q04DX003 (ip), vehicle: Klucel (hydroxypropylcellulose) (HPC)

Measured: T/C

O=C(O)C1(Cl)C2(Cl)C(Cl)=CC3(Cl)C(Cl)(C(=O)O)C2(Cl)C31Cl (configuration not stated)
inactive: dose: 50.0 mg/kg/injection, schedule: Q01DX001 (ip), vehicle: saline 108 % of control | [1] 103 % of control | [2] 101 % of control | [3] 97 % of control

C(=N\N1CCN(/N=C/c2ccc3c(c2)OCO3)CC1)/c1ccc2c(c1)OCO2
inactive: [1] 104 % of control | [2] 102 % of control | [3] 96 % of control

NC1CONC1=O (configuration not stated)
inactive: [4] 101 % of control | [5] 98 % of control | dose: 400.0 mg/kg/injection, schedule: Q01DX009 (ip), vehicle: saline with Tween-80 98 % of control

Cc1cc(C)c2c(c1)C/C2=N\O
inactive: [6] 106 % of control | [7] 106 % of control | dose: 400.0 mg/kg/injection, schedule: Q04DX002 (ip), vehicle: Klucel (hydroxypropylcellulose) (HPC) 103 % of control

O=C(Nc1ccc2c(c1)Cc1cccc(NC(=O)C(Cl)Cl)c1-2)C(Cl)Cl
inactive: dose: 50.0 mg/kg/injection, schedule: Q01DX009 (ip), vehicle: Klucel (hydroxypropylcellulose) (HPC) 95 % of control | [8] 89 % of control

CN1C2CCCCC1CC(=O)NC2 (configuration not stated)
inactive: dose: 75.0 mg/kg/injection, schedule: Q01DX001 (ip), vehicle: saline 98 % of control | dose: 150.0 mg/kg/injection, schedule: Q01DX001 (ip), vehicle: saline 101 % of control

Nc1c(Cl)[nH]cnc1=S
inactive: dose: 224.0 mg/kg/injection, schedule: Q01DX Z (ip), vehicle: methylcellulose (MC) 98 % of control | dose: 334.0 mg/kg/injection, schedule: Q01DX Z (ip), vehicle: methylcellulose (MC) 94 % of control | dose: 500.0 mg/kg/injection, schedule: Q01DX Z (ip), vehicle: methylcellulose (MC) 94 % of control | dose: 750.0 mg/kg/injection, schedule: Q01DX Z (ip), vehicle: methylcellulose (MC) 94 % of control

CC(=O)N/N=C/C=C/c1ccccc1
inactive: [9] 95 % of control | [10] 103 % of control

Cc1cc(C)c(NC(=O)C(Br)C(Br)c2ccccc2)c(C)c1 (configuration not stated)
inactive: [11] 98 % of control | [8] 98 % of control | [12] 98 % of control

CC(=O)NCc1ccc([N+](=O)[O-])cc1
inactive: [9] 100 % of control | [10] 107 % of control | [4] 104 % of control | [5] 111 % of control

O=C([O-])C1CCCCC1[I+]c1ccccc1 (configuration not stated)
inactive: [13] 100 % of control | [14] 98 % of control

CNC1(c2ccccc2)CC1
inactive: dose: 75.0 mg/kg/injection, schedule: Q04DX002 (ip), vehicle: saline 100 % of control | dose: 150.0 mg/kg/injection, schedule: Q04DX002 (ip), vehicle: saline 87 % of control

C=CCN(CC=C)c1ncnc(N(C)C)n1
inactive: dose: 25.6 mg/kg/injection, schedule: Q04DX002 (ip), vehicle: saline with Tween-80 93 % of control | dose: 64.0 mg/kg/injection, schedule: Q04DX002 (ip), vehicle: saline with Tween-80 101 % of control | dose: 160.0 mg/kg/injection, schedule: Q04DX002 (ip), vehicle: saline with Tween-80 101 % of control | dose: 400.0 mg/kg/injection, schedule: Q04DX002 (ip), vehicle: saline with Tween-80 97 % of control

CC[CH2][Pb]([CH2]CC)([CH2]CC)[N]1C(=O)c2ccccc2C1=O
inactive: dose: 3.12 mg/kg/injection, schedule: Q01DX009 (ip), vehicle: saline 98 % of control | dose: 3.12 mg/kg/injection, schedule: Q04DX002 (ip), vehicle: saline 92 % of control | [15] 101 % of control | dose: 6.25 mg/kg/injection, schedule: Q04DX002 (ip), vehicle: saline 111 % of control | dose: 12.5 mg/kg/injection, schedule: Q04DX002 (ip), vehicle: saline 94 % of control and 111 % of control

CCn1cc(C(=O)O)c(=O)c2cc3c(cc21)OCO3
inactive: [16] 96 % of control | [17] 108 % of control | [18] 98 % of control

O=C(Nc1cccc2nsnc12)c1ccc(C(=O)Nc2cccc3nsnc23)cc1
inactive: [16] 94 % of control | [17] 88 % of control | [18] 98 % of control

O=C1c2ccccc2-c2nc3cc4ccccc4cc3nc21
inactive: [19] 98 % of control | [11] 98 % of control | [20] 88 % of control | [8] 97 % of control | [21] 97 % of control | [12] 102 % of control

COc1ccc(-c2c(N)nc(=S)[nH]c2C(=O)O)cc1
inactive: [11] 97 % of control | [22] 100 % of control | [8] 94 % of control | [23] 101 % of control | [12] 103 % of control | [24] 106 % of control

NC(=NCc1ccccc1)c1ccc(NC(=O)c2ccc(C(=O)Nc3ccc(C(N)=NCc4ccccc4)cc3)cc2)cc1
inactive: dose: 7.0 mg/kg/injection, schedule: Q01DX Z (ip), vehicle: water 113 % of control

COc1cc2c(cc1OC)C(CN)C2 (configuration not stated)
inactive: dose: 50.0 mg/kg/injection, schedule: Q01DX009 (ip), vehicle: saline 101 % of control | dose: 100.0 mg/kg/injection, schedule: Q01DX009 (ip), vehicle: saline 103 % of control | [13] 116 % of control | dose: 200.0 mg/kg/injection, schedule: Q01DX009 (ip), vehicle: saline 89 % of control | [14] 119 % of control

NC1C(=O)NC(=O)NC1=O
inactive: dose: 50.0 mg/kg/injection, schedule: Q01DX009 (ip), vehicle: carboxymethylcellulose (CMC) 100 % of control | dose: 100.0 mg/kg/injection, schedule: Q01DX009 (ip), vehicle: carboxymethylcellulose (CMC) 103 % of control | [6] 102 % of control | dose: 200.0 mg/kg/injection, schedule: Q01DX009 (ip), vehicle: carboxymethylcellulose (CMC) 92 % of control | [7] 104 % of control

NC(=O)CNC(=O)CN1C(=O)c2ccccc2C1=O
inactive: [16] 103 % of control | [17] 103 % of control | [18] 103 % of control

O=C(CC(=O)c1ccco1)c1ccco1
inactive: [1] 100 % of control | [2] 102 % of control | [3] 96 % of control

OC1(Cc2nccc3ccccc23)CCN(Cc2ccccc2)CC1
inactive: dose: 100.0 mg/kg/injection, schedule: Q04DX003 (ip), vehicle: carboxymethylcellulose (CMC) 89 % of control | dose: 200.0 mg/kg/injection, schedule: Q04DX003 (ip), vehicle: carboxymethylcellulose (CMC) 98 % of control

O=C1NC2(CCCCC2)C(=O)N1CCN(CCCl)CCCl
inactive: dose: 1.3 mg/kg/injection, schedule: Q01DX009 (ip), vehicle: saline 96 % of control | dose: 2.0 mg/kg/injection, schedule: Q01DX009 (ip), vehicle: saline 107 % of control | dose: 4.1 mg/kg/injection, schedule: Q01DX009 (ip), vehicle: saline 117 % of control | [15] 119 % of control | dose: 9.3 mg/kg/injection, schedule: Q01DX009 (ip), vehicle: saline 124 % of control | dose: 16.0 mg/kg/injection, schedule: Q04DX003 (ip), vehicle: saline 122 % of control | dose: 25.0 mg/kg/injection, schedule: Q01DX009 (ip), vehicle: saline 106 % of control

O=C(c1ccccc1)C1OC(=O)C1c1ccccc1 (configuration not stated)
inactive: [19] 97 % of control | [22] 101 % of control | [20] 92 % of control | [23] 101 % of control | [21] 103 % of control | [24] 97 % of control

NC(=S)N/N=C1\CCCC\C1=N/NC(N)=S
inactive: dose: 50.0 mg/kg/injection, schedule: Q01DX001 (ip), vehicle: carboxymethylcellulose (CMC) 101 % of control | dose: 100.0 mg/kg/injection, schedule: Q01DX001 (ip), vehicle: carboxymethylcellulose (CMC) 109 % of control | dose: 200.0 mg/kg/injection, schedule: Q01DX001 (ip), vehicle: carboxymethylcellulose (CMC) 101 % of control | dose: 400.0 mg/kg/injection, schedule: Q01DX001 (ip), vehicle: carboxymethylcellulose (CMC) 104 % of control
